The nature of data set [1]: Oral bioavailability in rat. The data set is classed as ADME, organism-based. As to conditions: in vivo.
A short description of data set [2]: Oral bioavailability in monkey. The settings on record: rhesus monkey, in vivo. The data set is classed as ADME, organism-based, Macaca mulatta.
Data set [3] is described as follows: Tmax in rhesus monkey at 40 mg/kg, po. As to conditions: in vivo. The data set is classed as ADME, organism-based, Macaca mulatta.
The nature of data set [4]: Terminal half-life in rhesus monkey at 40 mg/kg, po. The data set is classed as ADME, organism-based, Macaca mulatta. The settings on record: in vivo, read-out: beta t1/2 (converted).
The test system of data set [5] is Candida albicans. In words: Antifungal activity against Candida albicans GS. The data set is classed as functional, organism-based.
Data set [6] has as its system Candida albicans. The experiment in a line: Fungicidal activity against Candida albicans. The data set is classed as functional.
Data set [7] is described as follows: Clearance in Chimpanzee at 0.5 mg/kg, iv bolus injection. The data set is classed as ADME, organism-based, Pan troglodytes. As to conditions: in vivo.
Data set [8] in a line: Clearance in Chimpanzee at 0.5 mg/kg administered as iv infusion. As to conditions: in vivo. The data set is classed as ADME, organism-based, Pan troglodytes.
Data set [9] is described as follows: in vivo. As to conditions: chimpanzee, iv, 0.5 mg/kg.
Data set [10] can be described thus: in vivo. As to conditions: chimpanzee, iv, 0.5 mg/kg. The source holds these as a separate data set.
Another data set concerns HEp-2. The experiment in a line: Anticancer activity against human HEp-2 cells. The data set is classed as functional, cell-based.
For another data set, the system named is CCRF-CEM. The experiment in a line: Anticancer activity against human CCRF-CEM cells. The data set is classed as functional, cell-based.
For a further data set, the system named is K562. The experiment in a line: Anticancer activity against human K562 cells. The data set is classed as functional, cell-based.
In a further data set the test system is L1210. In words: Anticancer activity against mouse L1210 cells. The data set is classed as functional, cell-based.
Data set [11] in a line: Aqueous stability of the compound at pH 7 assessed as half-life. The data set is classed as physicochemical. As to conditions: aqueous solution.
Data set [12] in a line: Stability in rat plasma assessed as drug degradation measured after 44 hrs. The data set is classed as ADME, cell-free. As to conditions: read-out: Drug degradation.
Data set [13] is described as follows: Stability in dog plasma assessed as drug degradation measured after 44 hrs. The data set is classed as ADME, cell-free, Canis lupus familiaris. The settings on record: read-out: Drug degradation.
Data set [14] in a line: Stability in monkey plasma assessed as drug degradation measured after 44 hrs. The data set is classed as ADME, cell-free, Macaca mulatta. As to conditions: rhesus monkey, read-out: Drug degradation.
The nature of data set [15]: Stability in human plasma assessed as drug degradation measured after 44 hrs. The settings on record: read-out: Drug degradation. The data set is classed as ADME, cell-free.
Data set [16] can be described thus: Half-life of the compound in aqueous solution at pH 6.0. The data set is classed as physicochemical.
The nature of data set [17]: Stability of the compound in 20% aqueous dioxane solution at 30 degreeC assessed as compound hydrolysis by measuring rate constant. The settings on record: buffer. The data set is classed as physicochemical.
Data set [18] in a line: Stability of the compound in 50% dioxane solution at 30 degreeC assessed as compound hydrolysis by measuring rate constant. The data set is classed as physicochemical.
The nature of data set [19]: Stability of the compound assessed as compound hydrolysis by measuring relative rate constant by titrimetric method. The data set is classed as physicochemical.
The nature of data set [20]: Half-life in human. The data set is classed as ADME.
Data set [21] is described as follows: Tmax in human. The data set is classed as ADME.
The nature of data set [22]: Oral bioavailability in rat relative to urinary excretion. The settings on record: urine. The data set is classed as ADME, organism-based.
A short description of data set [23]: Oral bioavailability in rat relative to plasma exposure. The data set is classed as ADME, organism-based.
Data set [24] concerns the target T1, Neutrophil elastase (Homo sapiens) (UniProt P08246).
T1 sequence (whole entry): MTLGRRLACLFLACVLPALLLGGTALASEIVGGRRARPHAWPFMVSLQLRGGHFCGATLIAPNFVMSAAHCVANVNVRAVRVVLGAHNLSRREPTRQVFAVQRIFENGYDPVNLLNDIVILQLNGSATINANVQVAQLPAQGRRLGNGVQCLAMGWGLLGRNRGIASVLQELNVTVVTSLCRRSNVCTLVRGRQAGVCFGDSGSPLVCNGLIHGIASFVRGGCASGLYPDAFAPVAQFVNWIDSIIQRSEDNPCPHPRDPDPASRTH
In words: Time-dependent inhibition of human leukocyte elastase assessed as observed binding constant.

Data set [25] is described as follows: Terminal half-life in iv dosed rat. The data set is classed as ADME, organism-based. The settings on record: in vivo, read-out: beta t1/2 (converted).
The nature of data set [26]: Terminal half-life in iv dosed rhesus monkey. The data set is classed as ADME, organism-based, Macaca mulatta. The settings on record: in vivo, read-out: beta t1/2 (converted).

pIC50: −log10 of the molar value. Numbered stars: 1 amine (or outer) side, 2 acyl side, 3 side chain; on linkers, the order of the positions; unused ones are H or OH. Bridge positions count the residues as written; N and C are the ends. Square brackets hold non-standard residues; d marks the D form. Peptide text beside a SMILES is read from it. * marks the point of attachment. Orn(4R-OH,5R-OCH2CH2NMe3+) = C[N+](C)(C)CCO[C@@H](N[*:3])[C@H](O)C[C@H](N[*:1])C(=O)[*:2]; pTerphenylCO(4''-OnC5H11) = CCCCCOc1ccc(-c2ccc(-c3ccc(C(=O)*)cc3)cc2)cc1; hTyr(3S-OH,4S-OH) = N[C@H](C(=O)O)[C@H](O)[C@@H](O)c1ccc(O)cc1; Pro(3S-OH,4S-Me) = C[C@H]1CN[C@H](C(=O)O)[C@H]1O; Hyp = O=C(O)[C@@H]1C[C@@H](O)CN1 Bounds are passed on as bounds.

One may read the bioavailability as the share of a dose that reaches the circulation, judged against a reference dose that is usually intravenous. A word on the Tmax: it is the time at which the peak concentration occurs. As a reminder, the pIC50 is −log10 of the IC50, conventionally taken in molar units. As usually defined, the MFC is the lowest tested concentration that kills the fungus rather than only halting it. What is called clearance is the volume of plasma or blood freed of the substance per unit of time.

As to `CCC[C@@H](NC(=O)N1C(=O)C(CC)(CC)[C@@H]1Oc1ccc(C(=O)N2CCN(C)CC2)cc1)c1ccc2c(c1)OCO2`, the bioavailability in data set [1] worked out at 65%; in [2], 39%. Moreover, the Tmax in data set [3] was 8 h. Also, the half-life in data set [4] was 6 h.
As for `CC[C@H](C)C[C@H](C)CCCCCCCCC(=O)N[C@H]1C[C@@H](O)[C@@H](OCCN)NC(=O)[C@@H]2[C@@H](O)CCN2C(=O)[C@H]([C@H](O)CCN)NC(=O)[C@H]([C@H](O)[C@@H](O)c2ccc(O)cc2)NC(=O)[C@@H]2C[C@@H](O)CN2C(=O)[C@H]([C@@H](C)O)NC1=O`, the pIC50 in the data set with Candida albicans [5] is 9.00. The MFC against Candida albicans [6] is < 0.06 µg/mL. Moreover, the clearance in [7] was found to be 0.58 mL/min/kg; in data set [8], 0.56 mL/min/kg. The half-life in the data set “in vivo [9]” is 2.8 h; in “in vivo [10]”, 2.6 h.
Regarding `Nc1nc(F)nc2c1ncn2[C@@H]1O[C@H](COP(=O)(O)O)[C@@H](O)[C@@H]1O` [FLUDARABINE PHOSPHATE], the pIC50 with HEp-2 was 5.05; in the data set with CCRF-CEM, 6.40; in the data set with K562, 6.82; in the data set with L1210, 5.52.
Consider `CC1(C)S[C@@H]2[C@H](NC(=O)[C@H](N)c3ccccc3)C(=O)N2[C@H]1C(=O)O` [AMPICILLIN], for which the half-life in data set [11] was 0.25 h.
Consider `CCCCCOc1ccc(-c2ccc(-c3ccc(C(=O)N[C@H]4C[C@@H](O)[C@@H](OCC[N+](C)(C)C)NC(=O)[C@@H]5[C@@H](O)[C@@H](C)CN5C(=O)[C@H]([C@@H](C)O)NC(=O)[C@H]([C@H](O)[C@@H](O)c5ccc(O)cc5)NC(=O)[C@@H]5C[C@@H](O)CN5C(=O)[C@H]([C@@H](C)O)NC4=O)cc3)cc2)cc1` [REZAFUNGIN] ({pTerphenylCO(4''-OnC5H11)}-[Orn(4R-OH,5R-OCH2CH2NMe3+)]T[Hyp][hTyr(3S-OH,4S-OH)]T[Pro(3S-OH,4S-Me)]; lactam 1-C), for which the metabolised at 44 h in data set [12] was 9%; in data set [13], 21%; in [14], 6%; in data set [15], 7%.
The molecule `CO[C@@]1(NC(=O)CCC[C@@H](N)C(=O)O)C(=O)N2C(C(=O)O)=C(COC(N)=O)CS[C@@H]21` gave a half-life in data set [16] of 459 h.
For the molecule `COc1ccc(C2(c3ccc(OC)cc3)OCCO2)cc1`, the values for the K in data set [17] and in [18] were 8.5 10^-1/M/s and 1.2 10^-1/M/s, respectively.
Regarding `CC1(C)OCCO1`, the K in [19] was 5.4 10^4No_unit.
In data set [20], `CN1CCN(C(=O)O[C@H]2c3nccnc3C(=O)N2c2ccc(Cl)cn2)CC1` [ESZOPICLONE] gave a half-life of 5 h. Further, the Tmax in [21] is 1 h.
Regarding `Nc1ccn([C@@H]2CO[C@H](CO)O2)c(=O)n1` [TROXACITABINE], the bioavailability in [22] came out at 41%; in [23], 37%.
`CCC[C@@H](NC(=O)N1C(=O)C(CC)(CC)[C@@H]1Oc1ccc(CC(=O)O)cc1)c1ccc(C)cc1`: the figures for the bioavailability in data set [1] and in [2] were 100% and 23%, respectively. The K in data set [24] is 6.2 10^5/M/s. Besides, the half-life in data set [25] was 2.3 h; in data set [26] it was 5.8 h; in data set [4] it was 6 h.

(Values after ChEMBL document CHEMBL5244275, “Geminal Diheteroatomic Motifs: Some Applications of Acetals, Ketals, and Their Sulfur and Nitrogen Homologues in Medicinal Chemistry and Drug Design” (J Med Chem, 2021).)
